Earlier results on two compounds are cited in patent US4552888A, “Ascorbic acid ethers in angiogene” (Eli Lilly and Company, priority 1983, dated 1985).

One data set deals with Vitamin C activity. The following applies: orally in aqueous solution; Bezssonoff and Sacrez 1937; cited from earlier work.
For the next data set, the system named is scorbutic guinea pigs. The following applies: added to the diet of scorbutic guinea pigs; Gould et al. 1949; cited from earlier work.
Data set [1] deals with proline hydroxylation in scorbutic granulomas. To be noted: in vitro; Rokosova and Chvapil 1974; cited from earlier work.
Data set [2] deals with lung metastases and B16 melanoma. To be noted: mice; Folkman and Taylor; cited from earlier work.

Regarding `COC1=C(O)C(=O)O[C@@H]1[C@@H](O)CO` [3-methylascorbic acid], in the data set with Vitamin C activity, the “Vitamin C activity” value is on record as “active”. Moreover, the “vitamin C activity relative to ascorbic acid” value in the data set on scorbutic guinea pigs is reported as “about 1/50”. In addition, the “stimulation of proline hydroxylation” value in data set [1] is on record as “had an effect in vitro”.
Regarding protamine, in data set [2], the “inhibition of lung metastases and B16 melanoma” value is “inhibited lung metastases and B16 melanoma in mice”.
